Test results reported in US10544151B2, “Compounds and uses thereof” (Kala Pharmaceuticals, Inc., priority 2013, dated 2020).

Legend:
[1] = Draize-Ocular Irritation assessment; format: in vivo, Dutch-belted rabbits; details: topical I-2 solution formulations, during PK studies
[2] = Physical and chemical stability of I-2 solutions at room temperature; format: physicochemical; details: F127 (0.5%), 20 mM Tris (pH 8)
Experimental: Solutions of I-2 were formulated with F127 or Tween 80, and under a range of pH values. Briefly, I-2 was first completely solubilized using an acidic solution (0.1 N HCl) at a high concentration of ˜5% (wiv). The final formulation was diluted to a solution consisting of 0.5% (wiv) I-2 into buffered solution containing F127 or Tween 80 as described in Table 5. Following dilution, the pH of the formulations was measured using pH indicator strips (PEHANON) and confirmed to be within expected range (±0.5 units of target pH).
Physical and chemical stability of the solutions at room temperature (20-25° C.) were assessed after 7-10 days (tfinal). Physical instability in a solution can manifest as the precipitation and sedimentation of the drug of interest and excipients over time. To assess physical stability, the formulations at tfinal were first filtered through a 300 kDa modified polyethersulfone filter membrane (Nanosep) to remove any precipitate in the solution. The concentration of I-2 in the filtrates was then measured and compared to that at t=0. The purity of I-2 in the unfiltered solution was also evaluated at tfinal, to further confirm chemical stability. This parameter is defined by the area under the signal peak that is attributed to compound I-2 as a percentage of all peaks reported by in the sample by HPLC (% peak area).

SMILES: Cc1cc(C(=O)Nc2cc(Oc3ccc4nc(NC(=O)CN5CC[C@H](N(C)C)C5)cn4n3)ccc2C)n(C)n1 [Compound I-2]
- Draize-Ocular Irritation [1]: no irritation
- physical stability of solution [2]: major physical instability
